The source of these data is ChEMBL document CHEMBL5126652, “Boron-Containing Pyrazole Compounds as JAK Inhibitors for Treating Inflammation, Autoimmune Diseases, and Cancer” (ACS Med Chem Lett, 2022).

What is called IC50 is the midpoint of a concentration-inhibition curve. Higher therefore signals lower potency.

Sequence of Tyrosine-protein kinase JAK1 (P23458 whole entry): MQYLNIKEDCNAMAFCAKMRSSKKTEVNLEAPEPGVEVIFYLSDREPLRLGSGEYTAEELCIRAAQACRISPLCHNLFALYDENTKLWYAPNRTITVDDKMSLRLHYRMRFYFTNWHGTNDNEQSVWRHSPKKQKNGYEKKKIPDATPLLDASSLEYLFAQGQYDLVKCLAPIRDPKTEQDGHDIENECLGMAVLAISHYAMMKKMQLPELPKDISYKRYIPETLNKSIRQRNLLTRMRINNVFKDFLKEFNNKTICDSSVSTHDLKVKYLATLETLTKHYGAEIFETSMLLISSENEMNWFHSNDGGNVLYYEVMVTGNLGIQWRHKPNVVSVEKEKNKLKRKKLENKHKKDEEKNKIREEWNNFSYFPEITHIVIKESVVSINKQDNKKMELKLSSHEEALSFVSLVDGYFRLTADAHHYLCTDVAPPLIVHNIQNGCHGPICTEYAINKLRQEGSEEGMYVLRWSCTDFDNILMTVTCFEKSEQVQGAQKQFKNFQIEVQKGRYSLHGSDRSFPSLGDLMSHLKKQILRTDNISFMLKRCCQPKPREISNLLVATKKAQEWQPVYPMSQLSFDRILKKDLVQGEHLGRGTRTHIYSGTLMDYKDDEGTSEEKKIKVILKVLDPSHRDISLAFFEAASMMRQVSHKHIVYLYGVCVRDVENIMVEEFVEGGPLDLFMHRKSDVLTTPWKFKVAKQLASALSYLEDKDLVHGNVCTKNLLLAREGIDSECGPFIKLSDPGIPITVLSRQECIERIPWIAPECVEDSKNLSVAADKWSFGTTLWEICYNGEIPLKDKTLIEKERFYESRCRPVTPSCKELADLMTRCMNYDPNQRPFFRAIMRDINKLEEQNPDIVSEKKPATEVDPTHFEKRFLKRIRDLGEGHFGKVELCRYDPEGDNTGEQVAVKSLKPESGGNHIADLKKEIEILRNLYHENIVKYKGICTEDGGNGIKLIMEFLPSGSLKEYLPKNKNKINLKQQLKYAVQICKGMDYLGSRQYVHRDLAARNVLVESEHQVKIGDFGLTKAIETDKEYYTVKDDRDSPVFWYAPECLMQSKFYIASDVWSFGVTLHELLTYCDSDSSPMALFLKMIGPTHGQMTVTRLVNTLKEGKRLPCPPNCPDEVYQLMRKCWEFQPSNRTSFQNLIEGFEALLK

This assay has as its target Tyrosine-protein kinase JAK1 (Homo sapiens, UniProt P23458). Nature of the assay: Inhibition of JAK1 (unknown origin) preincubated for 20 mins followed by 33P-ATP addition and measured after 2 hrs by filter binding assay.
`N#CC1CCOCC1n1cc(C(N)=O)c(Nc2ccc3c(c2)C(Cl)=CB(O)O3)n1` (stereo unspecified) gave an IC50 of less than 0.01 µM.

Take `N#CC1CCOCC1n1cc(C(N)=O)c(Nc2cc(F)c3c(c2)COB3O)n1` (stereo unspecified): the IC50 is less than 0.01 µM.

`N#CC1CCCC1n1cc(C(N)=O)c(Nc2ccc3c(c2)C=CB(O)O3)n1` (stereo unspecified) gave an IC50 of less than 0.01 µM.

On to `N#CC1CCOCC1n1cc(C(N)=O)c(Nc2ccc3c(c2)C2CC2B(O)O3)n1` (stereo unspecified), for which the IC50 was less than 0.01 µM.

Compound `N#CC1CCOCC1n1cc(C(N)=O)c(Nc2cc(Cl)c3c(c2)COB3O)n1` (stereo unspecified) registered an IC50 of less than 0.01 µM.

`N#CC1CCCC1n1cc(C(N)=O)c(Nc2ccc3c(c2)COB3O)n1` (stereo unspecified) registered an IC50 of less than 0.01 µM.
